Measurements as given in ChEMBL document CHEMBL3399986, “Rapid 'one-pot' synthesis of a novel benzimidazole-5-carboxylate and its hydrazone derivatives as potential anti-inflammatory and antimicrobial agents” (Bioorg Med Chem Lett, 2015).
Converted amounts (≈) assume the structure as drawn.

What was measured:
Format in all cases: functional
[1] = system: Rattus norvegicus; experiment: Antiinflammatory activity in rat assessed as inhibition of carrageenan-induced paw edema administered 30 mins prior to carrageenan challenge measured after 1 hr relative to control
[2] = system: Rattus norvegicus; experiment: Antiinflammatory activity in rat assessed as inhibition of carrageenan-induced paw edema administered 30 mins prior to carrageenan challenge measured after 2 hrs relative to control
[3] = system: Rattus norvegicus; experiment: Antiinflammatory activity in rat assessed as inhibition of carrageenan-induced paw edema administered 30 mins prior to carrageenan challenge measured after 3 hrs relative to control
[4] = system: Staphylococcus aureus; experiment: Antimicrobial activity against Staphylococcus aureus MTCC 3160 after 24 hrs by broth dilution method; settings: MTCC 3160, 24 h
[5] = system: Bacillus subtilis; experiment: Antimicrobial activity against Bacillus subtilis MTCC 441 after 24 hrs by broth dilution method; settings: MTCC 441, 24 h
[6] = system: Escherichia coli; experiment: Antimicrobial activity against Escherichia coli MTCC 4351 after 24 hrs by broth dilution method; settings: MTCC 4351, 24 h
[7] = system: Klebsiella pneumoniae; experiment: Antimicrobial activity against Klebsiella pneumoniae MTCC 3384 after 24 hrs by broth dilution method; settings: MTCC 3384, 24 h
[8] = system: Staphylococcus aureus; experiment: Antimicrobial activity against Staphylococcus aureus MTCC 3160 assessed as zone of inhibition at 5 mg/ml after 24 hrs by agar well diffusion method; settings: MTCC 3160, 24 h, read-out: IZ
[9] = system: Bacillus subtilis; experiment: Antimicrobial activity against Bacillus subtilis MTCC 441 assessed as zone of inhibition at 5 mg/ml after 24 hrs by agar well diffusion method; settings: MTCC 441, 24 h, read-out: IZ
[10] = system: Escherichia coli; experiment: Antimicrobial activity against Escherichia coli MTCC 4351 assessed as zone of inhibition at 5 mg/ml after 24 hrs by agar well diffusion method; settings: MTCC 4351, 24 h, read-out: IZ
[11] = system: Klebsiella pneumoniae; experiment: Antimicrobial activity against Klebsiella pneumoniae MTCC 3384 assessed as zone of inhibition at 5 mg/ml after 24 hrs by agar well diffusion method; settings: MTCC 3384, 24 h, read-out: IZ
[12] = system: Aspergillus niger; experiment: Antifungal activity against Aspergillus niger MTCC 282 after 48 hrs by broth dilution method; settings: MTCC 282, 48 h
[13] = system: Candida tropicalis; experiment: Antifungal activity against Candida tropicalis MTCC 183 after 48 hrs by broth dilution method; settings: MTCC 183, 48 h
[14] = system: Candida albicans; experiment: Antifungal activity against Candida albicans MTCC 461 after 48 hrs by broth dilution method; settings: MTCC 461, 48 h
[15] = system: Penicillium chrysogenum; experiment: Antifungal activity against Penicillium notatum after 48 hrs by broth dilution method
[16] = system: Aspergillus niger; experiment: Antifungal activity against Aspergillus niger MTCC 282 assessed as zone of inhibition at 5 mg/ml after 24 hrs by agar well diffusion method; settings: MTCC 282, 24 h, read-out: IZ
[17] = system: Candida tropicalis; experiment: Antifungal activity against Candida tropicalis MTCC 183 assessed as zone of inhibition at 5 mg/ml after 24 hrs by agar well diffusion method; settings: MTCC 183, 24 h, read-out: IZ
[18] = system: Candida albicans; experiment: Antifungal activity against Candida albicans MTCC 461 assessed as zone of inhibition at 5 mg/ml after 24 hrs by agar well diffusion method; settings: MTCC 461, 24 h, read-out: IZ
[19] = system: Penicillium chrysogenum; experiment: Antifungal activity against Penicillium notatum assessed as zone of inhibition at 5 mg/ml after 24 hrs by agar well diffusion method; settings: read-out: IZ

Structure (SMILES): CCCn1c(-c2ccc(Cl)cc2Cl)nc2cc(C(=O)N/N=C/c3ccc([N+](=O)[O-])cc3)ccc21
- inhibition (INH) [1]: 50%
- inhibition (INH) [2]: 50.2%
- inhibition (INH) [3]: 46.27%
- MIC [4]: 12.5 µg/mL (≈ 25.2 µM)
- MIC [5]: 25 µg/mL (≈ 50.4 µM)
- MIC [6]: 12.5 µg/mL (≈ 25.2 µM)
- MIC [7]: 25 µg/mL (≈ 50.4 µM)
- zone of inhibition at 5000 µg/mL [8]: 17 mm
- zone of inhibition at 5000 µg/mL [9]: 16 mm
- zone of inhibition at 5000 µg/mL [10]: 18 mm
- zone of inhibition at 5000 µg/mL [11]: 17 mm
- MIC [12]: 6.25 µg/mL (≈ 12.6 µM)
- MIC [13]: 12.5 µg/mL (≈ 25.2 µM)
- MIC [14]: 50 µg/mL (≈ 101 µM)
- MIC [15]: 25 µg/mL (≈ 50.4 µM)
- zone of inhibition at 5000 µg/mL [16]: 20 mm
- zone of inhibition at 5000 µg/mL [17]: 16 mm
- zone of inhibition at 5000 µg/mL [18]: 13 mm
- zone of inhibition at 5000 µg/mL [19]: 13 mm

Structure (SMILES): CCCn1c(-c2ccc(Cl)cc2Cl)nc2cc(C(=O)N/N=C/c3ccc(C)cc3)ccc21
- inhibition (INH) [1]: 49.25%
- inhibition (INH) [2]: 52.72%
- inhibition (INH) [3]: 47.73%
- MIC [4]: 6.25 µg/mL (≈ 13.4 µM)
- MIC [5]: 12.5 µg/mL (≈ 26.9 µM)
- MIC [6]: 12.5 µg/mL (≈ 26.9 µM)
- MIC [7]: 6.25 µg/mL (≈ 13.4 µM)
- zone of inhibition at 5000 µg/mL [8]: 20 mm
- zone of inhibition at 5000 µg/mL [9]: 17 mm
- zone of inhibition at 5000 µg/mL [10]: 18 mm
- zone of inhibition at 5000 µg/mL [11]: 18 mm
- MIC [12]: 3.12 µg/mL (≈ 6.7 µM)
- MIC [13]: 6.25 µg/mL (≈ 13.4 µM)
- MIC [14]: 12.5 µg/mL (≈ 26.9 µM)
- MIC [15]: 6.25 µg/mL (≈ 13.4 µM)
- zone of inhibition at 5000 µg/mL [16]: 22 mm
- zone of inhibition at 5000 µg/mL [17]: 18 mm
- zone of inhibition at 5000 µg/mL [18]: 16 mm
- zone of inhibition at 5000 µg/mL [19]: 17 mm

Structure (SMILES): CCCn1c(-c2ccc(Cl)cc2Cl)nc2cc(C(=O)N/N=C/c3ccc(Cl)cc3)ccc21
- inhibition (INH) [1]: 56.85%
- inhibition (INH) [2]: 53.56%
- inhibition (INH) [3]: 46.56%
- MIC [4]: 50 µg/mL (≈ 103 µM)
- MIC [5]: 12.5 µg/mL (≈ 25.7 µM)
- MIC [6]: 50 µg/mL (≈ 103 µM)
- MIC [7]: 25 µg/mL (≈ 51.5 µM)
- zone of inhibition at 5000 µg/mL [8]: 12 mm
- zone of inhibition at 5000 µg/mL [9]: 18 mm
- zone of inhibition at 5000 µg/mL [10]: 10 mm
- zone of inhibition at 5000 µg/mL [11]: 17 mm
- MIC [12]: 25 µg/mL (≈ 51.5 µM)
- MIC [13]: 50 µg/mL (≈ 103 µM)
- MIC [14]: 12.5 µg/mL (≈ 25.7 µM)
- MIC [15]: 25 µg/mL (≈ 51.5 µM)
- zone of inhibition at 5000 µg/mL [16]: 17 mm
- zone of inhibition at 5000 µg/mL [17]: 14 mm
- zone of inhibition at 5000 µg/mL [18]: 17 mm
- zone of inhibition at 5000 µg/mL [19]: 13 mm

Structure (SMILES): CCCn1c(-c2ccc(Cl)cc2Cl)nc2cc(C(=O)N/N=C/c3ccccc3[N+](=O)[O-])ccc21
- inhibition (INH) [1]: 46.66%
- inhibition (INH) [2]: 51.74%
- inhibition (INH) [3]: 47.44%
- MIC [4]: 25 µg/mL (≈ 50.4 µM)
- MIC [5]: 25 µg/mL (≈ 50.4 µM)
- MIC [6]: 12.5 µg/mL (≈ 25.2 µM)
- MIC [7]: 25 µg/mL (≈ 50.4 µM)
- zone of inhibition at 5000 µg/mL [8]: 15 mm
- zone of inhibition at 5000 µg/mL [9]: 16 mm
- zone of inhibition at 5000 µg/mL [10]: 17 mm
- zone of inhibition at 5000 µg/mL [11]: 17 mm
- MIC [12]: 12.5 µg/mL (≈ 25.2 µM)
- MIC [13]: 25 µg/mL (≈ 50.4 µM)
- MIC [14]: 50 µg/mL (≈ 101 µM)
- MIC [15]: 50 µg/mL (≈ 101 µM)
- zone of inhibition at 5000 µg/mL [16]: 18 mm
- zone of inhibition at 5000 µg/mL [17]: 16 mm
- zone of inhibition at 5000 µg/mL [18]: 14 mm
- zone of inhibition at 5000 µg/mL [19]: 12 mm

Structure (SMILES): CCCn1c(-c2ccc(Cl)cc2Cl)nc2cc(C(=O)N/N=C/c3cccc(Cl)c3Cl)ccc21
- inhibition (INH) [1]: 53.14%
- inhibition (INH) [2]: 49.65%
- inhibition (INH) [3]: 45.1%
- MIC [4]: 12.5 µg/mL (≈ 24 µM)
- MIC [5]: 25 µg/mL (≈ 48.1 µM)
- MIC [6]: 12.5 µg/mL (≈ 24 µM)
- MIC [7]: 12.5 µg/mL (≈ 24 µM)
- zone of inhibition at 5000 µg/mL [8]: 17 mm
- zone of inhibition at 5000 µg/mL [9]: 15 mm
- zone of inhibition at 5000 µg/mL [10]: 18 mm
- zone of inhibition at 5000 µg/mL [11]: 18 mm
- MIC [12]: 6.25 µg/mL (≈ 12 µM)
- MIC [13]: 25 µg/mL (≈ 48.1 µM)
- MIC [14]: 12.5 µg/mL (≈ 24 µM)
- MIC [15]: 50 µg/mL (≈ 96.1 µM)
- zone of inhibition at 5000 µg/mL [16]: 20 mm
- zone of inhibition at 5000 µg/mL [17]: 16 mm
- zone of inhibition at 5000 µg/mL [18]: 16 mm
- zone of inhibition at 5000 µg/mL [19]: 12 mm

Structure (SMILES): CCCn1c(-c2ccc(Cl)cc2Cl)nc2cc(C(=O)N/N=C/c3ccccc3)ccc21
- inhibition (INH) [1]: 56.85%
- inhibition (INH) [2]: 54.12%
- inhibition (INH) [3]: 47.15%
- MIC [4]: 50 µg/mL (≈ 111 µM)
- MIC [5]: 25 µg/mL (≈ 55.4 µM)
- MIC [6]: 12.5 µg/mL (≈ 27.7 µM)
- MIC [7]: 50 µg/mL (≈ 111 µM)
- zone of inhibition at 5000 µg/mL [8]: 12 mm
- zone of inhibition at 5000 µg/mL [9]: 15 mm
- zone of inhibition at 5000 µg/mL [10]: 18 mm
- zone of inhibition at 5000 µg/mL [11]: 12 mm
- MIC [12]: 25 µg/mL (≈ 55.4 µM)
- MIC [13]: 50 µg/mL (≈ 111 µM)
- MIC [14]: 50 µg/mL (≈ 111 µM)
- MIC [15]: 25 µg/mL (≈ 55.4 µM)
- zone of inhibition at 5000 µg/mL [16]: 19 mm
- zone of inhibition at 5000 µg/mL [17]: 12 mm
- zone of inhibition at 5000 µg/mL [18]: 12 mm
- zone of inhibition at 5000 µg/mL [19]: 16 mm

Structure (SMILES): CCCn1c(-c2ccc(Cl)cc2Cl)nc2cc(C(=O)N/N=C/c3ccc(F)cc3)ccc21
- inhibition (INH) [1]: 61.48%
- inhibition (INH) [2]: 53.14%
- inhibition (INH) [3]: 50.36%
- MIC [4]: 6.25 µg/mL (≈ 13.3 µM)
- MIC [5]: 6.25 µg/mL (≈ 13.3 µM)
- MIC [6]: 6.25 µg/mL (≈ 13.3 µM)
- MIC [7]: 6.25 µg/mL (≈ 13.3 µM)
- zone of inhibition at 5000 µg/mL [8]: 20 mm
- zone of inhibition at 5000 µg/mL [9]: 19 mm
- zone of inhibition at 5000 µg/mL [10]: 20 mm
- zone of inhibition at 5000 µg/mL [11]: 19 mm
- MIC [12]: 6.25 µg/mL (≈ 13.3 µM)
- MIC [13]: 6.25 µg/mL (≈ 13.3 µM)
- MIC [14]: 6.25 µg/mL (≈ 13.3 µM)
- MIC [15]: 25 µg/mL (≈ 53.3 µM)
- zone of inhibition at 5000 µg/mL [16]: 20 mm
- zone of inhibition at 5000 µg/mL [17]: 18 mm
- zone of inhibition at 5000 µg/mL [18]: 18 mm
- zone of inhibition at 5000 µg/mL [19]: 15 mm

Structure (SMILES): CCCn1c(-c2ccc(Cl)cc2Cl)nc2cc(C(=O)N/N=C/c3cccc([N+](=O)[O-])c3)ccc21
- inhibition (INH) [1]: 52.22%
- inhibition (INH) [2]: 53.14%
- inhibition (INH) [3]: 42.91%
- MIC [4]: 12.5 µg/mL (≈ 25.2 µM)
- MIC [5]: 12.5 µg/mL (≈ 25.2 µM)
- MIC [6]: 25 µg/mL (≈ 50.4 µM)
- MIC [7]: 12.5 µg/mL (≈ 25.2 µM)
- zone of inhibition at 5000 µg/mL [8]: 17 mm
- zone of inhibition at 5000 µg/mL [9]: 17 mm
- zone of inhibition at 5000 µg/mL [10]: 15 mm
- zone of inhibition at 5000 µg/mL [11]: 18 mm
- MIC [12]: 6.25 µg/mL (≈ 12.6 µM)
- MIC [13]: 3.12 µg/mL (≈ 6.29 µM)
- MIC [14]: 6.25 µg/mL (≈ 12.6 µM)
- MIC [15]: 12.5 µg/mL (≈ 25.2 µM)
- zone of inhibition at 5000 µg/mL [16]: 20 mm
- zone of inhibition at 5000 µg/mL [17]: 20 mm
- zone of inhibition at 5000 µg/mL [18]: 17 mm
- zone of inhibition at 5000 µg/mL [19]: 15 mm
